Test results published in US20040058357A1 (priority 2003, published 2004).

How the values were obtained:
[1] = system: PC12 cells; assay type: cell-based
[2] = system: AChE; assay type: cell-based
[3] = system: hippocampal slices; assay type: cell-based, mice
[4] = system: AChE-S mRNA; conditions: rat, in vivo
[5] = system: AChE; conditions: rat, in vivo
[6] = system: AChE; conditions: rat, in vivo; remark: listed apart in the source

Structure (SMILES): C[C@]12C[C@H](O)[C@H]3[C@@H](CCC4=CC(=O)CC[C@@]43C)[C@@H]1CC[C@@H]2C(=O)CO [corticosterone]
- Increase in labeling intensities of both AChE splice variants versus vehicle-treated cells [1]: 30-50%
- Increase in acetylthiocholine hydrolytic capacity of AChE [2]: 25±14%

Structure (SMILES): CN1[C@@H]2CC[C@H]1C[C@@H](OC(=O)C(CO)c1ccccc1)C2 (stereo partly drawn) [atropine]
- Block of the evoked response [3]: over 90%
- Reversal of the physostigmine-induced response [3]: 70%

Structure (SMILES): CN1[C@@H]2C[C@@H](OC(=O)[C@H](CO)c3ccccc3)C[C@H]1[C@@H]1O[C@@H]12 [scopolamine]
- AChE-S elevation by vehicle injection-induced stress under muscarinic blocker [4]: 39.6±3.3 AFU
- AChE-S mRNA labeling, change in words [4]: conspicuous increases
- DFP-induced AChE-S expression [4]: 35.1±10 AFU
- Effect on AChE-S or -R levels after 24 hours [4]: did not show any effect
- Effect on the DFP-induced decrease in AChE activities [5]: no significant effect
- DFP-induced increase of G1:G4 ratio under co-injection [6]: prevented

Structure (SMILES): CN1CCN(CC(=O)N2c3ccccc3C(=O)Nc3cccnc32)CC1 [pirenzepine]
- AChE-S elevation by vehicle injection-induced stress under muscarinic blocker [4]: 39.1±5.2 AFU
- AChE-S mRNA labeling, change in words [4]: somewhat lower increase
- DFP-induced AChE-S expression [4]: 30.4±4.9 AFU
- Effect on AChE-S or -R levels after 24 hours [4]: did not show any effect
- Cortical DFP-induced decrease in AChE activity under pirenzepine pre-treatment [5]: 44 % of control
- Hippocampal regaining of AChE activity after DFP under pirenzepine pre-treatment [5]: 63 % of control
- DFP-induced increase of G1:G4 ratio under co-injection [6]: prevented

Structure (SMILES): NC(CCCP(=O)(O)O)C(=O)O (stereo not drawn) [APV, aminophosphonopentanoic acid]
- Effect on the evoked pfp [3]: blocked

Structure (SMILES): CNC(=O)Oc1ccc2c(c1)[C@]1(C)CCN(C)[C@@H]1N2C [physostigmine]
- Increase in amplitude of evoked population spikes, mean [3]: 42±15%
- Increase in amplitude of evoked population spikes, range [3]: 20-80%
- Increase over baseline in population spike amplitudes relative to non-stressed animals [3]: 12 fold
